Source: patent US8580776B2, “Compositions and methods for treating neurodegenerating diseases” (The Board of Trustees of the University of Illinois, priority 2007, dated 2013)

Assays:
neprilysin (NEP) = assay: QPCR of neprilysin mRNA in brain samples; type: in vivo, mice; settings: cortical samples, versus vehicle
Procedure: Total cytoplasmic RNA from tissues was isolated using TRIZOL reagent, (Invitrogen/GIBCO); aliquots were converted to cDNA using random hexamer primers, and mRNA levels were estimated by quantitative touchdown PCR (QPCR). PCR conditions were 35 cycles of denaturation at 94° C. for 10 s; annealing at 58-64° C. for 15 s; and extension at 72° C. for 20 s on a Corbett Rotorgene Real-Time PCR unit (Corbett, Australia). PCR was done using Taq DNA Polymerase (Invitrogen), and contained SYBR Green (SybrGreen1 10,000× concentrate, diluted 1:10,000; Molecular Probes, Eugene, Oreg.). Relative mRNA concentrations were calculated from the takeoff point of reactions using manufacturer's software, and were normalized to α-tubulin, β-actin, and glyceraldehyde-3-phosphate dehydrogenase (GDH). Melting curve analysis and agarose gel electrophoresis ensured production of single and corrected size products. The primers used were: […]
Comparative real time RT-PCR (or quantitative PCR, QPCR) was used to measure mRNA levels of the Aβ degrading enzymes neprilysin (Nep) and insulin degrading enzyme (IDE) in brain samples from vehicle and DSP4 treated mice (FIG. 4A). […] To assess the effects of dose, mouse neuronal N2A cells were incubated with increasing does of NA for 24 hr after which NEP activity was measured (FIG. 4D, data is mean±sd and is from n=3 samples). […]

LC noradrenergic neurons = assay: Lesion of the locus coeruleus with DSP4 in H6 mice; type: in vivo; settings: DSP4 5 mg per kg i.p. every two weeks, H6 mice from age 3-4 months, sacrificed at 9 months
Procedure: Hemizygous male H6 mice (aged 3 to 4 months) were injected with vehicle or with DSP4 (5 mg per kg; i.p., every two weeks) and all mice were sacrificed at age 9 months. This protocol (a low, chronic dose) results in 70% loss of LC noradrenergic neurons. Brains were dissected, the left hemispheres were fast frozen in isopentane at −30° C. and stored at −80° C. for subsequent protein and RNA studies. The right hemispheres were processed for immunohistochemistry.
A chronic treatment paradigm was chosen using a relatively low dose (5 mg/kg) which may better reproduce the slow onset of NA dysfunction that is seen with aging in humans, and a gradual rather than abrupt loss of LC neurons.

IκBα = assay: QPCR of IκBα mRNA in frontal cortex of DSP4-treated rats; type: in vivo, rat
Procedure: In this experiment, the effects of DSP4 on tyrosine hydroxylase (TH) and IkBα expression were analyzed. Adult rat Sprague Dawley rats were treated with the selective neurotoxin DSP4 to lesion locus ceruleus (LC) noradrenergic neurons and deplete cortical NA levels as described in Example 1.
RNA samples from control or DSP4-treated rats (n=4 each) were converted to cDNA and analyzed by QPCR for relative levels of tyrosine hydroxylase (TH) (FIG. 6A) in the locus ceruleus (LC).
Total cytoplasmic RNA from tissues was prepared from cells using TRIZOL reagent according to manufacturer procedures (Invitrogen/GIBCO); aliquots were converted to cDNA using random hexamer primers, and mRNA levels were estimated by quantitative touchdown PCR (QPCR). Conditions were 35 cycles of denaturation at 94° C. for 10 s; annealing at 58-64° C. for 15 s; and extension at 72° C. for 20 s on a Corbett Rotorgene Real-Time PCR unit (Corbett, Australia). The PCR mastermix contained SYBR Green (1 μl diluted 1:10,000 SybrGreen I 10,000× concentrate, Molecular Probes, Eugene, Oreg.). Relative mRNA concentrations were calculated from the takeoff point of reactions using manufacturer's software. Melting curve analysis and agarose gel electrophoresis were performed to ensure production of single and corrected size products. […]

## CCN(CCCl)Cc1ccccc1Br [DSP4, N-(2-chloroethyl)-N-ethyl-2-bromobenzylamine]
Neprilysin (NEP)
  reduction of NEP mRNA levels: approximately 20%
LC noradrenergic neurons
  loss of LC noradrenergic (TH positive) neurons: 70%
IκBα; P<0.01
  cortical IκBα mRNA levels: 45 % versus control values
IκBα; versus control values, n=4, P<0.01
  reduction of cortical IκBα mRNA levels: 55%
